Patent publication US20250059159A1, “PLPRO INHIBITORS” (SHANGHAI SYNERGY PHARMACEUTICAL SCIENCES CO., LTD., priority 2021, published 2025)

Legend:
SARS-CoV2 (Omicron) = test: SARS-CoV2 antiviral cellular activity assay in A549:hACE2 cells; type: cell-based; conditions: Severe acute respiratory syndrome coronavirus 2, 48 h; read-out: Antiviral cellular EC50 range (Omicron)
SARS-CoV-2 PLpro = SARS-CoV-2 PLpro (Severe acute respiratory syndrome coronavirus 2 (2019-nCoV) (SARS-CoV-2), UniProt P0DTD1); test: PLpro enzymatic inhibition assay (IC50 value determination); type: biochemical; conditions: 60 min preincubation for covalent inhibitors, 10 min for non-covalent, read-out: Inhibition of SARS-CoV-2 PLpro IC50 range

Compound | EC50 (SARS-CoV2 (Omicron)) [nM] | IC50 (SARS-CoV-2 PLpro) [nM]
COC(=O)/C=C/CNC(=O)CNC(=O)CN(C1CCN([C@H](C)c2cccc3ccccc23)CC1)S(C)(=O)=O [Compound 20, methyl (R,E)-4-(2-(2-(N-(1-(1-(naphthalen-1-yl)ethyl)piperidin-4-yl)methylsulfonamido)acetamido)acetamido)but-2-enoate] | < 100 | < 100
C#CCNC(=O)CNC(=O)CN(C1CCN([C@H](C)c2cccc3ccccc23)CC1)S(C)(=O)=O [Compound 21, (R)-2-(N-(1-(1-(naphthalen-1-yl)ethyl)piperidin-4-yl)methylsulfonamido)-N-(2-oxo-2-(prop-2-yn-1-ylamino)ethyl)acetamide] | < 100 | < 100
C#CCNC(=O)CNC(=O)CN(C1CCN([C@H](C)c2cccc3ccccc23)CC1)S(=O)(=O)C1CC1 [Compound 60, (R)-2-(N-(1-(1-(naphthalen-1-yl)ethyl)piperidin-4-yl)cyclopropanesulfonamido)-N-(2-oxo-2-(prop-2-yn-1-ylamino)ethyl)acetamide] | < 100 | < 100
C#CCNC(=O)CNC(=O)CN(C1CCN([C@H](C)c2cccc3ccccc23)CC1)S(=O)(=O)c1ccccc1 [Compound 63, (R)-2-(N-(1-(1-(naphthalen-1-yl)ethyl)piperidin-4-yl)phenylsulfonamido)-N-(2-oxo-2-(prop-2-yn-1-ylamino)ethyl)acetamide] | < 100 | < 100
C#CCNC(=O)CNC(=O)CN(C1CCN([C@H](C)c2cccc3ccccc23)CC1)S(=O)(=O)N1CCCC1 [Compound 65, (R)-2-(N-(1-(1-(naphthalen-1-yl)ethyl)piperidin-4-yl)pyrrolidine-1-sulfonamido)-N-(2-oxo-2-(prop-2-yn-1-ylamino)ethyl)acetamide] | < 100 | < 100
C#CCNC(=O)CNC(=O)CN(CCC(C)=O)C1CCN([C@H](C)c2cccc3ccccc23)CC1 [Compound 79, (R)-2-((1-(1-(naphthalen-1-yl)ethyl)piperidin-4-yl)(3-oxobutyl)amino)-N-(2-oxo-2-(prop-2-yn-1-ylamino)ethyl)acetamide] | 100 to 1000 | < 100
C#CCNC(=O)CNC(=O)CN(C1CCN([C@H](C)c2cccc3ccccc23)CC1)S(=O)(=O)C(F)(F)F [Compound 80, (R)—N-(2-oxo-2-(prop-2-yn-1-ylamino)ethyl)-2-((1,1,1-trifluoro-N-(1-(1-(naphthalen-1-yl)ethyl)piperidin-4-yl)methyl)sulfonamido)acetamide] | 100 to 1000 | < 100
C#CCNC(=O)CNC(=O)CN(C1CCN(C(C)c2ccc(F)c3ccccc23)CC1)S(C)(=O)=O (stereo not shown) [Compound 107] | 100 to 1000 | < 100
C#CCNC(=O)CNC(=O)CN(C1CCN(C(CF)c2cccc3ccccc23)CC1)S(C)(=O)=O (stereo not shown) [Compound 144, 2-(N-(1-(2-fluoro-1-(naphthalen-1-yl)ethyl)piperidin-4-yl)methylsulfonamido)-N-(2-oxo-2-(prop-2-yn-1-ylamino)ethyl)acetamide] | – | 1000 to 10000
C#CCNC(=O)CNC(=O)CN(C1CCN([C@H](C)c2cccc3ccccc23)CC1)S(N)(=O)=O [Compound 145, (R)-2-((1-(1-(naphthalen-1-yl)ethyl)piperidin-4-yl)(sulfamoyl)amino)-N-(2-oxo-2-(prop-2-yn-1-ylamino)ethyl)acetamide 2,2,2-trifluoroacetate] | – | < 100
C#CC(=O)NNC(=O)CN(C1CCN([C@H](C)c2cccc3ccccc23)CC1)S(C)(=O)=O [Compound 147, (R)—N-(1-(1-(naphthalen-1-yl)ethyl)piperidin-4-yl)-N-(2-oxo-2-(2-propioloylhydrazineyl)ethyl)methanesulfonamide] | – | < 100
C#CCNC(=O)CNC(=O)CN(C1CCN(C(c2cccc3ccccc23)C(F)F)CC1)S(C)(=O)=O (stereo not shown) [Compound 148, 2-(N-(1-(2,2-difluoro-1-(naphthalen-1-yl)ethyl)piperidin-4-yl)methylsulfonamido)-N-(2-oxo-2-(prop-2-yn-1-ylamino)ethyl)acetamide] | – | 1000 to 10000
[2H]C([2H])([2H])C(c1cccc2ccccc12)N1CCC(N(CC(=O)NCC(=O)NCC#C)S(C)(=O)=O)CC1 (stereo not shown) [Compound 151, 2-(N-(1-(1-(naphthalen-1-yl)ethyl-2,2,2-d3)piperidin-4-yl)methylsulfonamido)-N-(2-oxo-2-(prop-2-yn-1-ylamino)ethyl)acetamide] | – | < 100
C#CCNC(=O)CNC(=O)[C@@H](C)N(C1CCN([C@H](C)c2cccc3ccccc23)CC1)S(C)(=O)=O [Compound 152, (R)-2-(N-(1-((R)-1-(naphthalen-1-yl)ethyl)piperidin-4-yl)methylsulfonamido)-N-(2-oxo-2-(prop-2-yn-1-ylamino)ethyl)propanamide] | – | < 100
[2H]C([2H])(C#C)NC(=O)CNC(=O)CN(C1CCN(C(C)c2cccc3ccccc23)CC1)S(C)(=O)=O (stereo not drawn) [Compound 153, 2-(N-(1-(1-(naphthalen-1-yl)ethyl)piperidin-4-yl)methylsulfonamido)-N-(2-oxo-2-((prop-2-yn-1-yl-1,l-d2)amino)ethyl)acetamide] | – | < 100
COC(CNC(=O)CNC(=O)CN(C1CCN(C(C)c2cccc3ccccc23)CC1)S(C)(=O)=O)OC (stereo not shown) [Compound 154, N-(2,2-dimethoxyethyl)-2-(2-(N-(1-(1-(naphthalen-1-yl)ethyl)piperidin-4-yl)methylsulfonamido)acetamido)acetamide] | – | 1000 to 10000
C#CC(C)(C)CNC(=O)CNC(=O)CN(C1CCN(C(C)c2cccc3ccccc23)CC1)S(C)(=O)=O (stereo not shown) [Compound 156, N-(2,2-dimethylbut-3-yn-1-yl)-2-(2-(N-(1-(1-(naphthalen-1-yl)ethyl)piperidin-4-yl)methylsulfonamido)acetamido)acetamide] | – | 1000 to 10000
C#CCCNC(=O)CNC(=O)CN(C1CCN(C(C)c2cccc3ccccc23)CC1)S(C)(=O)=O (stereo not shown) [Compound 157, N-(but-3-yn-1-yl)-2-(2-(N-(1-(1-(naphthalen-1-yl)ethyl)piperidin-4-yl)methylsulfonamido)acetamido)acetamide] | – | 100 to 1000
CC(c1cccc2ccccc12)N1CCC(N(CC(=O)NCC(=O)NC/C=C/C(N)=O)S(C)(=O)=O)CC1 (stereo not shown) [Compound 159, (E)-4-(2-(2-(N-(1-(1-(naphthalen-1-yl)ethyl)piperidin-4-yl)methylsulfonamido)acetamido)acetamido)but-2-enamide] | – | 100 to 1000
COC(=O)/C(C#N)=C/CNC(=O)CNC(=O)CN(C1CCN(C(C)c2cccc3ccccc23)CC1)S(C)(=O)=O (stereo not shown) [Compound 162, methyl (E)-2-cyano-4-(2-(2-(N-(1-(1-(naphthalen-1-yl)ethyl)piperidin-4-yl)methylsulfonamido)acetamido)acetamido)but-2-enoate] | – | 100 to 1000
C#CCNC(=S)CNC(=O)CN(C1CCN(C(C)c2cccc3ccccc23)CC1)S(C)(=O)=O (stereo not shown) [Compound 164, 2-(N-(1-(1-(naphthalen-1-yl)ethyl)piperidin-4-yl)methylsulfonamido)-N-(2-(prop-2-yn-1-ylamino)-2-thioxoethyl)acetamide] | – | < 100
C=CC(=O)NNC(=O)CN(C1CCN(C(C)c2cccc3ccccc23)CC1)S(C)(=O)=O (stereo not shown) [Compound 168, N-(2-(2-acryloylhydrazineyl)-2-oxoethyl)-N-(1-(1-(naphthalen-1-yl)ethyl)piperidin-4-yl)methanesulfonamide] | – | 1000 to 10000
C#Cc1nnc(NC(=O)CN(C2CCN(C(C)c3cccc4ccccc34)CC2)S(C)(=O)=O)o1 (stereo not shown) [Compound 170, N-(5-ethynyl-1,3,4-oxadiazol-2-yl)-2-(N-(1-(1-(naphthalen-1-yl)ethyl)piperidin-4-yl)methylsulfonamido)acetamide] | – | 1000 to 10000
